Values quoted from earlier work as cited in US6414139B1, “Silicon amphiphilic compounds and the use thereof” (Imarx Therapeutics, Inc., priority 1996, dated 2002).

Conditions: gel state to liquid crystalline state; CRC Handbook of Lipid Bilayers p. 139

## CCCCCCCCCCCCCCCCCCCCCCC(=O)OC[C@H](COP(=O)([O-])OCC[N+](C)(C)C)OC(=O)CCCCCCCCCCCCCCCCCCCCCC [1,2-(23:0)]
  Main Phase Transition Temperature: 79.5 °C

## CCCCCCCCCCCCCCCCCCCCCCCC(=O)OC[C@H](COP(=O)([O-])OCC[N+](C)(C)C)OC(=O)CCCCCCCCCCCCCCCCCCCCCCC [1,2-(24:0)]
  Main Phase Transition Temperature: 80.1 °C
